For data set [1], the system named is Bacillus subtilis (BG125). The experiment in a line: Shake flask growth of BG125 in 1% SBG (Klett reading and flask pH). The class given is cell-based. As to conditions: for growth in shake flask compared to other flasks: 1% SBG pH 7, 37° C., 3 g/l (44 mM) sodium formate and/or 80 mM MOPS (FIG. 5). As to the method:
(§1) The Bacillus subtilis strain used was a derivative of I168 called BG125 (hisA1 thr5 trpC2) provided by J. A. Hoch. […] MM294 competent cells (Ausubel et al. 1992, Short Protocols in Molecular Biology. John Wiley and Sons, New York) were used for plasmid construction and propagation. LB broth and agar were used for growing MM294 cells and were supplemented with 50 ug/ml carbenicillin for selection. BG125 was grown on LB agar or in LB liquid medium supplemented with 10 μg/ml of kanamycin for selection.
Trimethaprim was dissolved in 50% ethanol and added to a final concentration of 50 ug/ml where indicated when the growth had reached a Klett reading between 20-30 units. The additions for trimethaprim experiments were added at the following final concentrations: 10 ug/ml glycine, 10 ug/ml methionine, 50 ug/ml thymidine, 20 ug/ml adenosine, and 20 ug/ml guanosine.
(§2) Prior to shake flask experiments BG125 was grown from frozen stocks onto LB agar and grown overnight at 37° C. Cells were removed from the plates to 6 mls of SBG1% in test-tubes and grown at 37° C. for three hours. 0.2 mls of the seed culture was used to inoculate a pre-warmed 300 ml nephlometer flask containing 20 mls of the appropriate media. Flasks were incubated at 37° C. (except where indicated) and 300 rpm in a New Brunswick Scientific Shaker. At the indicated time points, the amount of cell growth was determined by a Klett-Summerson Photoelectric Colorimeter, the pH of the flask was taken using a Corning pH/iometer, and 1.25 mls was removed for further processing. The sample was spun in an eppendorf microfuge and 1 ml of supernatant was removed and mixed with 30 μls of perchloric acid HPLC analysis. The remaining supernatant was saved for glucose analysis. All samples were stored at −70° C. until analysis. Medium pH titrations were performed by the stepwise addition of HCl followed by pH measurement. The bactericidal tests of pH and formate on B. subtilis were carried out by growing BG125 as described above in SBG1% to a density of 5×10^6 cfu/ml. The cells were then adjusted to a concentration of 5×10^4 cfu/ml with buffered SBG1% adjusted to the pH indicated, with and without 50 mM formate. Cultures were then incubated at 37° C. with shaking for 3 hours. Samples were taken at 0, 1 2 and 3 hours, serially diluted and plated to LB at 37° C. for determination of cell viability.

Data set [2] is described as follows: Medium pH titration by stepwise addition of HCl. The class given is physicochemical. As to conditions: 1% SBG with 3 g/l sodium formate or 80 mM MOPS, HCl added (FIG. 6). As to the method: as §2, with “At the indicated time points, the amount of cell growth was determined by a Klett-Summerson Photoelectric Colorimeter, the pH of the flask was taken using a Corning pH/iometer, and 1.25 mls was removed for further processing.” left out

Data set [3] has as its system Bacillus subtilis (BG125). The experiment in a line: Metabolic by-products (HPLC) and glucose in shake flask supernatants. It is filed as cell-based. As to conditions: flasks of FIG. 5: 3 g/l sodium formate, 80 mM MOPS; control about 1.5 g/L. As to the method:
as §2, with “At the indicated time points, the amount of cell growth was determined by a Klett-Summerson Photoelectric Colorimeter, the pH of the flask was taken using a Corning pH/iometer, and 1.25 mls was removed for further processing.” left out

The test system of data set [4] is Bacillus subtilis (BG125). The experiment in a line: Bactericidal tests of pH and formate (cell viability by plating). The class given is cell-based. How it is done:
as §1, §2

For data set [5], the system named is BG125 with yrhG (FTAP 1) gene interruption. The experiment in a line: Shake flask growth of BG125 with interruption of yrhG (FTAP 1). The class given is cell-based, Bacillus subtilis. As to conditions: 1% SBG, 3 g/l formate. The text has this:
(§3) The PCR product was digested with BamHI and PstI and ligated with the 5.3-Kb BamHI-PstI fragment from plasmid pUC/Ts/Kan to construct the yrhG-homologue interruption plasmid pTRANS1. […] The PCR product was digested with BamHI and PstI and ligated with the 5.3-Kb BamHI-PstI fragment from plasmid pUC/Ts/Kan to construct the ywcJ-homologue interruption plasmid. […] The sequencing primers used were the mp19/pUC19 24-mer reverse sequencing primer and the mp19/pUC19 24-mer sequencing primer from New England Biolabs.
(§4) Resulting kanamycin resistant transformants were grown overnight in LB liquid medium containing kanamycin at 45° C. Integrants were plated and then colony purified on LB plates containing kanamycin at 45° C. Isolated colonies were then frozen in LB liquid medium plus 30% glycerol at −70° C. for preservation.
(§5) Prior to shake flask experiments BG125 was grown from frozen stocks onto LB agar and grown overnight at 37° C. Cells were removed from the plates to 6 mls of SBG1% in test-tubes and grown at 37° C. for three hours. 0.2 mls of the seed culture was used to inoculate a pre-warmed 300 ml nephlometer flask containing 20 mls of the appropriate media. Flasks were incubated at 37° C. (except where indicated) and 300 rpm in a New Brunswick Scientific Shaker. […]

Data set [6] deals with BG125 with ywcJ (FTAP 2) gene interruption. The experiment in a line: Shake flask growth of BG125 with interruption of ywcJ (FTAP 2). As to conditions: 1% SBG, 3 g/l formate, ywcJ (FTAP 2) interruption (FIG. 17). The class given is cell-based, Bacillus subtilis.
Description: as §3, §4, §5

Turning to `O=S(=O)(O)CCCN1CCOCC1` [MOPS, reference compound], the “growth in shake flask compared to other flasks” value in data set [1] is “near the levels of the formate containing flask”. Further, in data set [2], the “buffering activity in pH titration” value was “showed buffering activity in the expected range”. The acetate level reached in data set [3] was roughly 2 g/L.
With `O=C[O-].[Na+]` [sodium formate, Sodium formate], in data set [4] (pH 3.6, 50 mM formate, also without formate), the loss of viability result was “lost complete viability within two hours”. For the same molecule, in data set [4] (pH 3.6, one hour, 50 mM formate, 1.8 % without formate), the “percent of survivors based on the initial titer” value was found to be 0.13%. For the same molecule, the percent survivors in data set [4] (pH 4.0, 3 hours, 50 mM formate, 38 % without formate) is given as 1.2%. For the same molecule, the viability entry is “no decline in viability” in data set [4] (pH 4.6, 50 mM formate) and “no decline of viability” in data set [4] (pH 7.0, 50 mM formate). Also, the “growth in shake flask compared to other flasks” value in data set [1] was “more total growth”. In addition, in data set [1] (3 g/l sodium formate, 1% SBG), the “lag in the initial growth rate” value was “slight lag”. The “rate of growth when formate was added” value in data set [1] (flask containing trimethaprim and growth enhancing additives (FIG. 11)) is “significantly reduced”. Besides, in data set [1] (higher concentrations of sodium formate, up to 21 g/l (FIG. 7)), the “duration of the initial lag period” value is “correlation between increasing concentrations of formate and the duration of the initial lag period”. The “culture density reached after the lag period” value in data set [1] (sodium formate up to 21 g/l (FIG. 7), versus control flask) is listed as “reached higher densities than the control flask”. Also, in data set [5] (yrhG (FTAP1) interruption (FIG. 16)), the “decrease in the growth enhancement normally seen with exogenous formate” value is given as roughly 50%. For the same molecule, the “growth enhancement effect of formate in interrupted strain” value in data set [5] (yrhG interruption (FIG. 16)) is “reduced the normal growth enhancement effect of formate by half”. In data set [6], the “effect of formate on growth of interrupted strain” value is reported as “toxic effect which caused a decline of growth well below growth of the control strain with out formate”. In addition, in data set [2], the “buffering activity in pH titration” value is recorded as “little buffering activity down to pH 5.0”.
Regarding `COc1cc(Cc2cnc(N)nc2N)cc(OC)c1OC` [trimethaprim, Trimethaprim, reference compound], the “effect on growth compared to SBG1% alone” value in data set [1] (trimethaprim 50 ug/ml added at Klett 20-30, SBG1% (FIG. 11)) is reported as “inhibitory effect”.

These data come from patent US6458557B1, “Enhancing growth in gram-positive microorganisms using formate supplementation and inactivation of formate-associated transport proteins” (Genencor International, Inc., priority 1997, dated 2002).
